Measured values published in patent publication US10016515B2, “DMA, a bis-benzimidazole, confers radioprotection to the intestine via Akt/NFκB dual pathway activation” (Jawaharlal Nehru University, priority 2016, dated 2018).
Where two headings read alike, the source gives them in different places.

Key:
[1] = system: NFκB Δp65− A549 and scramble A549 cells; assay: Clonogenicity assay of NFκB p65 knockdown A549 cells; assay type: cell-based, human
Protocol: 0.8-1×10^6 A549 cells were seeded with media containing 8 μg/ml polybrene. Cells were infected with 0.5 ml lentivirus in fresh media containing polybrene and were incubated for next 24 h. Desired cells were selected against puromycin. NFκB p65 protein knockdown was checked by western blot after 3 days of selection media.
Exponentially growing scrambled and NFκB p65 knockdown A549 cells were treated with 50 μM DMA for 2 h and irradiated with 0, 2, 4, 6 and 8 Gy of radiation dose for clonogenic survival assay. % Radioprotection was calculated by following formula % of Protection in radiation treated cells=(SF(Δp65−)+DMA/SF(Δp65−))×100 where SF is survival fraction in respective conditions.

[2] = system: melanoma bearing Balb/c mice; conditions: 300 mg/kg oral (Nimesh et al. 2015); cited from earlier work
Balb/c mice = assay type: in vivo
Protocol: Balb/c mice with or without DMA treatment were placed in a specially designed, well-ventilated acrylic container and subjected to whole-body irradiation at 5, 6, 8, 9 or 10 Gray (Gy) in a single fraction.
The mice were grouped as follows: Group 1, Sham control (normal saline treated); Group 2, radiation control (whole body exposure to 8 Gy); Group 3, treated with increasing doses (100, 150, 200, 450 and 600 mg/kg bw) of DMA 2 h prior to whole body exposure to 8 Gy and Group 4 treated with similar DMA doses only. Survival study was carried out for a period of 30 days and animals were routinely monitored for their body weight, food and water intake, radiation sickness symptoms and mortality to fix the highest effective dose of DMA against radiation induced toxicity.
Mice were treated with DMA (200 mg/kg bw) prior to whole body exposure to 5, 6, 8, 9 & 10 Gy. DRF was calculated ratio of LD50/30 mice treated with both DMA and radiation to the LD50/30 of mice treated with saline and radiation. Similarly survival with different route of administration of DMA was studied at 8 and 9 Gy TBI.

**Q.** With COc1ccc(-c2nc3cc(-c4nc5cc(N6CCN(C)CC6)ccc5[nH]4)ccc3[nH]2)cc1OC [DMA, 5-(4-methylpiperazin-1-yl)-2-[2′-(3,4-dimethoxyphenyl)-5′-benzimidazolyl]benzimidazole] as the compound, how does the DMF ([1]; NFκB Δp65− A549, 50 μM DMA 2 h) read?
**A.** Its DMF is 1.02.

**Q.** And the DMF ([1]; scrambled sequence transfected A549, 50 μM DMA 2 h)?
**A.** Its DMF is 1.28.

**Q.** And the “Protection of tumor tissues” value [2]?
**A.** The value was “no protection to tumor tissues”.

**Q.** And the Survival / radioprotection (Balb/c mice; 50 mg/kg i.v. 2 h prior to 8Gy TBI)?
**A.** Its Survival / radioprotection is 100%.

**Q.** What about the Survival (Balb/c mice; 50 mg/kg i.v., 9Gy TBI) of the same compound?
**A.** Its Survival is 50%.

**Q.** And the Radioprotection (Balb/c mice; 50 mg/kg s.c. 3 h prior to 8Gy TBI)?
**A.** The Radioprotection was 20%.

**Q.** What about the 30-days survival rate (Balb/c mice; 100 mg/kg oral before 8Gy TBI) of the same compound?
**A.** Its 30-days survival rate is 54%.

**Q.** And the Survival (Balb/c mice; 125 mg/kg i.p. 2 h before 8Gy)?
**A.** The Survival was 55%.

**Q.** What about the 30-days survival rate (Balb/c mice; 150 mg/kg oral before 8Gy TBI) of the same compound?
**A.** The 30-days survival rate was 70%.

**Q.** And the 30-days survival rate (Balb/c mice; 200 mg/kg oral before 8Gy TBI (dose finding, FIG. 4C))?
**A.** Its 30-days survival rate is 80%.

**Q.** What about the 30-day survival rate (Balb/c mice; 200 mg/kg oral, 5Gy TBI) of the same compound?
**A.** Its 30-day survival rate is 100%.

**Q.** And the 30-day survival rate (Balb/c mice; 200 mg/kg oral, 6Gy TBI)?
**A.** The 30-day survival rate was 100%.

**Q.** What about the 30-day survival rate (Balb/c mice; 200 mg/kg oral, 8Gy TBI (FIG. 4D)) of the same compound?
**A.** Its 30-day survival rate is 82%.

**Q.** And the 30-day survival rate (Balb/c mice; 200 mg/kg oral, 9Gy TBI)?
**A.** Its 30-day survival rate is 18%.

**Q.** What about the 30-day survival rate (Balb/c mice; 200 mg/kg oral, 10Gy TBI) of the same compound?
**A.** The 30-day survival rate was 12%.

**Q.** What about the “Dose reduction factor (DRF)” value (Balb/c mice; 200 mg/kg oral, ratio of LD50/30, Balb/c mice) of the same compound?
**A.** The value was 1.28.

**Q.** And the “Effect of DMA by itself on rodents” value (Balb/c mice; DMA only)?
**A.** The value was “no effect”.

**Q.** What about the “Body weight after TBI” value (Balb/c mice; DMA pre-treated mice, after initial 9 days of radiation) of the same compound?
**A.** The value was “considerable weight regain”.
